Results on six molecules are retold here after PMC3958260 (2014).

Experiment [1] concerns aptamer # 3_7 (DNA, aptamer) ATACCAGCTTATTCAATTGGTGGTAGGATGGGCTCGATCGAGGTCTTCAGTCGGCTCGGTTTAGTTTATGTTCTCCTGTAGATAGTAAGTGCAATCT
Kind of experiment: bead fluorescence release assay. Conditions: 100 mM Na+, 5 mM K+, 2 mM Mg2+, 1 mM Ca2+; 20 mM Tris-HCl pH 7.6, 21 °C; 1 mM compound; release from capture oligo iODN2Sp; single concentration.

Experiment [2] concerns aptamer # 11_76 (DNA, aptamer) ATACCAGCTTATTCAATTATGCGGGGATGAGGCTTGATCTGTGGCTCTGATCCATGATCAGTCGTCTTACGTGCGGTCCAGATAGTAAGTGCAATCT
Put plainly: bead fluorescence release assay. The settings on record: 100 mM Na+, 5 mM K+, 2 mM Mg2+, 1 mM Ca2+; 20 mM Tris-HCl pH 7.6, 21 °C; 1 mM compound; release from capture oligo iODN2Sp; single concentration.

Experiment [3] relates to aptamer # 13_82 (DNA, aptamer) ATACCAGCTTATTCAATTCAGGGCGGTATGAGGCTCGATCAAGGTCGGAGCGAGAATTTTTTCGCGGAGTCGGCTGGATCAGATAGTAAGTGCAATCT
Put plainly: bead fluorescence release assay. Conditions: 100 mM Na+, 5 mM K+, 2 mM Mg2+, 1 mM Ca2+; 20 mM Tris-HCl pH 7.6, 21 °C; 1 mM compound; release from capture oligo iODN2Sp; single concentration.

In experiment [4] the test system is aptamer # 3_19 (DNA, aptamer) ATACCAGCTTATTCAATTAGCCCGGTATTGAGGTCGATCTCTTATCCTATGGCTTGTCCCCCATGGCTCGGTTATATCCAGATAGTAAGTGCAATCT
Kind of experiment: bead fluorescence release assay. The settings on record: 100 mM Na+, 5 mM K+, 2 mM Mg2+, 1 mM Ca2+, 20 mM Tris-HCl pH 7.6, 21 °C, 1 mM compound, release from capture oligo iODN2Sp; for amount of eluted aptamer DNA: single concentration; for binding: below 1 pmol threshold.

Experiment [5] relates to aptamer # 3_7(1-79) (DNA, aptamer) ATACCAGCTTATTCAATTGGTGGTAGGATGGGCTCGATCGAGGTCTTCAGTCGGCTCGGTTTAGTTTATGTTCTCCTGT
Put plainly: bead fluorescence release assay. The settings on record: 100 mM Na+, 5 mM K+, 2 mM Mg2+, 1 mM Ca2+; 20 mM Tris-HCl pH 7.6, 21 °C; 1 mM compound; release from capture oligo iODN2Sp; single concentration.

Experiment [6] concerns aptamer # 13_82(19-80) (DNA, aptamer) CAGGGCGGTATGAGGCTCGATCAAGGTCGGAGCGAGAATTTTTTCGCGGAGTCGGCTGGATC
Kind of experiment: MTP fluorescence release assay. The settings on record: 100 mM Na+, 5 mM K+, 2 mM Mg2+, 1 mM Ca2+; 20 mM Tris-HCl pH 7.6, 21 °C; release from capture oligo iODN2Sp; elution not above background.

The test system is the same in experiment [7]. Put plainly: bead fluorescence release assay. The settings on record: 100 mM Na+, 5 mM K+, 2 mM Mg2+, 1 mM Ca2+; 20 mM Tris-HCl pH 7.6, 21 °C; 1 mM compound; release from capture oligo iODN2Sp; single concentration.
The subject of experiment [8] is # 3_19(1-79) (DNA, aptamer) ATACCAGCTTATTCAATTAGCCCGGTATTGAGGTCGATCTCTTATCCTATGGCTTGTCCCCCATGGCTCGGTTATATCC
Put plainly: MTP fluorescence release assay. Conditions: 100 mM Na+, 5 mM K+, 2 mM Mg2+, 1 mM Ca2+; 20 mM Tris-HCl pH 7.6, 21 °C; release from capture oligo iODN2Sp; elution not above background.

Experiment [9] concerns aptamer # 3_19 (DNA, aptamer) ATACCAGCTTATTCAATTAGCCCGGTATTGAGGTCGATCTCTTATCCTATGGCTTGTCCCCCATGGCTCGGTTATATCCAGATAGTAAGTGCAATCT
Kind of experiment: fluorescence (bead or MTP assay) or SPR, capture-oligo release. The settings on record: 100 mM Na+, 5 mM K+, 2 mM Mg2+, 1 mM Ca2+; 20 mM Tris-HCl pH 7.6; release from capture oligo iODN2Sp; micromolar range; apparent.

In experiment [10] the test system is aptamer # 3_7(1-79) (DNA, aptamer) ATACCAGCTTATTCAATTGGTGGTAGGATGGGCTCGATCGAGGTCTTCAGTCGGCTCGGTTTAGTTTATGTTCTCCTGT
The description is as above. The settings on record: 100 mM Na+, 5 mM K+, 2 mM Mg2+, 1 mM Ca2+; 20 mM Tris-HCl pH 7.6; release from capture oligo iODN2Sp; micromolar range; apparent.

Experiment [11] deals with aptamer # 11_76 (DNA, aptamer) ATACCAGCTTATTCAATTATGCGGGGATGAGGCTTGATCTGTGGCTCTGATCCATGATCAGTCGTCTTACGTGCGGTCCAGATAGTAAGTGCAATCT
The description is as above. The settings on record: 100 mM Na+, 5 mM K+, 2 mM Mg2+, 1 mM Ca2+; 20 mM Tris-HCl pH 7.6; release from capture oligo iODN2Sp; micromolar range; apparent.

The test system of experiment [12] is aptamer # 13_82 (DNA, aptamer) ATACCAGCTTATTCAATTCAGGGCGGTATGAGGCTCGATCAAGGTCGGAGCGAGAATTTTTTCGCGGAGTCGGCTGGATCAGATAGTAAGTGCAATCT
The description is as above. The settings on record: 100 mM Na+, 5 mM K+, 2 mM Mg2+, 1 mM Ca2+; 20 mM Tris-HCl pH 7.6; release from capture oligo iODN2Sp; micromolar range; apparent.

Experiment [13] concerns aptamer # 13_82(19-80) (DNA, aptamer) CAGGGCGGTATGAGGCTCGATCAAGGTCGGAGCGAGAATTTTTTCGCGGAGTCGGCTGGATC
The description is as above. The settings on record: 100 mM Na+, 5 mM K+, 2 mM Mg2+, 1 mM Ca2+; 20 mM Tris-HCl pH 7.6; release from capture oligo iODN2Sp; micromolar range; apparent.

Consider `CCN[C@@H]1C[C@H](N)[C@@H](O[C@H]2OC(CN)=CC[C@H]2N)[C@H](O)[C@H]1O[C@H]1OC[C@](C)(O)[C@H](NC)[C@H]1O`, for which the “amount of eluted aptamer DNA” value in experiment [1] is given as 1.03 pmol; in experiment [2] it was 1.03 pmol; in experiment [3] it was 1.01 pmol.

On to `CN[C@@H]1[C@@H](O[C@H]2O[C@H](CO)[C@@H](N)[C@H](O)[C@H]2O)O[C@H]2C[C@@H](N)[C@@H](O[C@H]3[C@H](O)[C@@H](O)[C@H](N)C[C@@H]3N)O[C@@H]2[C@@H]1O`, for which the “amount of eluted aptamer DNA” value was 2.27 pmol in [4]; 3.04 pmol in [1]; 1.68 pmol in experiment [5]; 3.04 pmol in [2]; 3.40 pmol in [3].

Regarding `NC[C@@H]1O[C@H](O[C@H]2[C@@H](O)[C@H](O[C@@H]3[C@@H](O)[C@H](N)C[C@H](N)[C@H]3O[C@H]3O[C@H](CO)[C@@H](O)[C@H](O)[C@H]3N)O[C@@H]2CO)[C@H](N)[C@@H](O)[C@@H]1O`, the binding entry in experiment [6] is reported as “no”.

For `NC[C@H]1O[C@H](O[C@H]2[C@H](O)[C@@H](O[C@H]3O[C@H](CO)[C@@H](O)[C@H](N)[C@H]3O)[C@H](N)C[C@@H]2N)[C@H](N)C[C@@H]1O`, in experiment [4], the binding result was “no”. Moreover, the “amount of eluted aptamer DNA” value in [5] was 1.91 pmol; in [2], 4.03 pmol; in [3], 2.78 pmol; in experiment [7], 1.13 pmol.

Regarding `NC[C@H]1O[C@H](O[C@H]2[C@H](O)[C@@H](O[C@H]3O[C@H](CO)[C@@H](O)[C@H](N)[C@H]3O)[C@H](N)C[C@@H]2N)[C@H](N)[C@@H](O)[C@@H]1O`, the binding result in experiment [4] is given as “no”. Besides, the “amount of eluted aptamer DNA” value in experiment [1] is recorded as 4.42 pmol; in experiment [5], 8.04 pmol; in experiment [2], 5.21 pmol; in experiment [3], 7.22 pmol; in [7], 3.09 pmol.

As for `NC[C@H]1O[C@H](O[C@H]2[C@H](O)[C@@H](O[C@H]3O[C@H](CO)[C@@H](O)[C@H](N)[C@H]3O)[C@H](N)C[C@@H]2N)[C@H](O)[C@@H](O)[C@@H]1O`, in [8], the binding entry is “no”. Further, the “amount of eluted aptamer DNA” value was 3.02 pmol in [4]; 4.62 pmol in experiment [1]; 10.44 pmol in experiment [5]; 5.02 pmol in experiment [2]; 6.85 pmol in [3]; 6.87 pmol in experiment [7]. In addition, the dissociation constant in experiment [9] is 3.9 µM; in experiment [10], 146 µM; in [11] it was 9.6 µM; in [12], 5.1 µM; in experiment [13], 5.4 µM.
